In ChEMBL document CHEMBL2429798, “Antioxidant effectiveness generated by one or two phenolic hydroxyl groups in coumarin-substituted dihydropyrazoles” (Eur J Med Chem, 2013) one finds K, TIME and inhibition data, which are given here for 8 compounds.

Assay type in all cases: functional
A short description of experiment [1]: Antioxidant activity assessed as galvinoxyl radical scavenging activity at 15 uM.
For experiment [2], the system named is Radical scavenging activity. Nature of the experiment: Antioxidant activity assessed as DPPH radical scavenging activity at 10 uM. On the technique in general: DPPH is a stable violet radical that fades when it is reduced.
Experiment [3] can be described thus: Antioxidant activity assessed as time required to inhibit AAPH-induced oxidation of DNA by TBARS assay.
The nature of experiment [4]: Antioxidant activity assessed as ABTS radical scavenging activity at 5 uM.
Experiment [5] can be described thus: Antioxidant activity assessed as inhibition of hydroxyl radical-induced oxidation of DNA at 0.2 mM after 30 mins by TBARS assay relative to control.
A short description of experiment [6]: Antioxidant activity assessed as inhibition of Cu2+/GSH-induced oxidation of DNA at 0.2 mM measured every 30 mins by TBARS assay.
Experiment [7] is described as follows: Antioxidant activity assessed as inhibition of AAPH-induced oxidation of DNA at 1 to 400 uM measured every 2 hrs by TBARS assay.

Calls of active or inactive are those of the source. The rule behind the calls is not given here.

On to `O=c1oc2ccccc2cc1C1=NN(c2ccccc2)C(c2ccc(O)cc2O)C1` (stereo not drawn), for which the K is 7900 M⁻¹ s⁻¹ in experiment [1], 3720 M⁻¹ s⁻¹ in experiment [2] and 24600 M⁻¹ s⁻¹ in experiment [4]. For the same compound, in experiment [3], the TIME stood at 0.0343 h. In addition, the inhibition in experiment [5] is 35.5%. Also, the inhibition entry in experiment [6] was “Active”.

As to `O=c1oc2ccccc2cc1C1=NN(c2ccccc2)C(c2ccccc2)C1` (stereo not drawn), the inhibition result in experiment [7] is “inactive”. Moreover, the inhibition in experiment [5] stood at 67.8%. The inhibition entry in experiment [6] was “Active”.

Consider `O=c1oc2ccccc2cc1C1=NN(c2ccccc2)C(c2ccccc2O)C1` (stereo not drawn), for which the K in experiment [1] worked out at 4350 M⁻¹ s⁻¹; in experiment [2] it was 540 M⁻¹ s⁻¹; in experiment [4], 7440 M⁻¹ s⁻¹. Besides, the TIME in experiment [3] was 0.0192 h. For the same compound, the inhibition in experiment [5] turned out to be 44.2%.

Consider `O=c1oc2ccccc2cc1C1=NN(c2ccccc2)C(c2ccc(O)c(O)c2)C1` (stereo not drawn), for which the results for the K in experiment [1], in experiment [2] and in experiment [4] were 6920 M⁻¹ s⁻¹, 8830 M⁻¹ s⁻¹ and 12900 M⁻¹ s⁻¹, respectively. The TIME in experiment [3] is 0.0327 h. For the same compound, in experiment [5], the inhibition is 43.4%. The inhibition entry in experiment [6] was “Active”.

For the compound `COc1ccc(C2CC(c3cc4ccccc4oc3=O)=NN2c2ccccc2)cc1` (stereo not drawn), the inhibition entry in experiment [7] is “inactive”. The inhibition in experiment [5] stood at 75.3%. Moreover, in experiment [6], the inhibition result was “Active”.

As to `O=c1oc2ccccc2cc1C1=NN(c2ccccc2)C(c2cccc(O)c2)C1` (stereo not drawn), the K came out at 7230 M⁻¹ s⁻¹ in experiment [1], 700 M⁻¹ s⁻¹ in experiment [2] and 4310 M⁻¹ s⁻¹ in experiment [4]. Besides, the TIME in experiment [3] was 0.016 h. Also, the inhibition in experiment [5] was determined as 66.4%.

In the case of `O=c1oc2ccccc2cc1C1=NN(c2ccccc2)C(c2ccc(O)cc2)C1` (stereo not drawn), the K was 5820 M⁻¹ s⁻¹ in experiment [1], 2440 M⁻¹ s⁻¹ in experiment [2] and 11200 M⁻¹ s⁻¹ in experiment [4]. The TIME in experiment [3] stood at 0.0173 h. Further, in experiment [5], the inhibition worked out at 81.1%.

As to `COc1cc(C2CC(c3cc4ccccc4oc3=O)=NN2c2ccccc2)ccc1O` (stereo not drawn), the values for the K in experiment [1], in experiment [2] and in experiment [4] were 6740 M⁻¹ s⁻¹, 2540 M⁻¹ s⁻¹ and 5990 M⁻¹ s⁻¹, respectively. For the same compound, the TIME in experiment [3] turned out to be 0.0313 h. Also, the inhibition in experiment [5] was 53.9%.

By inhibition is commonly meant the share of the control response that was lost under treatment.
